Measurements from US9611249B2, “1H-indazole-3-carboxamide compounds as glycogen synthase kinase 3 beta inhibitors” (AZIENDE CHIMICHE RIUNITE ANGELINI FRANCESCO A.C.R.A.F. …, priority 2012, dated 2017).

Columns and labels:
[1] = molecular target: IKKalpha (h) (Homo sapiens (Human), UniProt O15111); experiment: Kinase selectivity panel: IKKalpha (h); type: biochemical; conditions: 10 μM in duplicate, read-out: % inhibition of control values
Description: (§1) (a) Compounds 1 and 2 were tested against a panel of 60 kinases in order to assess their selectivity. The assays were chosen taking into consideration the diversity of assay families.
(§2) Tested kinases were representative of following kinase sub-families: • protein-serine/threonine kinases; • protein-tyrosine kinases; • other kinases; and • atypical kinases.
(§3) Human recombinant kinases were incubated in the presence of specific peptide substrates plus ATP for different times (10, 15, 30, 60 or 90 minutes) at 22° C. Phosphorylated substrate was detected by LANCE or HTRF technology (CISBIO, MA, USA). The compounds were tested at 10 μM in duplicate.
(§4) The results are expressed as a percentage of inhibition of control specific activity obtained in the presence of the test compounds and are reported in the following Table 5.
(§5) (b) Compounds 3, 8, 29 and 31 were tested against the same panel of 60 kinases under the same conditions described above for compounds 1 and 2.
(§6) The results are expressed as a percent of inhibition of control specific activity obtained in the presence of the test compounds and are reported in the following Table 6.

[2] = molecular target: Abl kinase (h) (Homo sapiens (Human), UniProt P00519); experiment: Kinase selectivity panel: Abl kinase (h); type: biochemical; conditions: 10 μM in duplicate, read-out: % inhibition of control values
Description: as §1, §2, §3, §4, §5, §6

[3] = molecular target: p38gamma kinase (h) (Homo sapiens (Human), UniProt P53778); experiment: Kinase selectivity panel: p38gamma kinase (h); type: biochemical; conditions: 10 μM in duplicate, read-out: % inhibition of control values
Description: as §1, §2, §3, §4, §5, §6

[4] = molecular target: PDK1 (h) (Homo sapiens (Human), UniProt O15530); experiment: Kinase selectivity panel: PDK1 (h); type: biochemical; conditions: 10 μM in duplicate, read-out: % inhibition of control values
Description: as §1, §2, §3, §4, §5, §6

[5] = molecular target: CDK2 (h) (cycA) (Homo sapiens (Human), UniProt P24941); experiment: Kinase selectivity panel: CDK2 (h) (cycA); type: biochemical; conditions: 10 μM in duplicate, read-out: % inhibition of control values
Description: as §1, §2, §3, §4, §5, §6

[6] = molecular target: mTOR kinase (h) (FRAP1) (Homo sapiens (Human), UniProt P42345); experiment: Kinase selectivity panel: mTOR kinase (h) (FRAP1); type: biochemical; conditions: 10 μM in duplicate, read-out: % inhibition of control values
Description: as §1, §2, §3, §4, §5, §6

[7] = molecular target: Pim1 kinase (h) (Homo sapiens (Human), UniProt P11309); experiment: Kinase selectivity panel: Pim1 kinase (h); type: biochemical; conditions: 10 μM in duplicate, read-out: % inhibition of control values
Description: as §1, §2, §3, §4, §5, §6

[8] = molecular target: MEK1/MAP2K1 (h) (Homo sapiens (Human), UniProt Q02750); experiment: Kinase selectivity panel: MEK1/MAP2K1 (h); type: biochemical; conditions: 10 μM in duplicate, read-out: % inhibition of control values
Description: as §1, §2, §3, §4, §5, §6

[9] = molecular target: FGFR1 kinase (h) (Homo sapiens (Human), UniProt P11362); experiment: Kinase selectivity panel: FGFR1 kinase (h); type: biochemical; conditions: 10 μM in duplicate, read-out: % inhibition of control values
Description: as §1, §2, §3, §4, §5, §6

[10] = test system: AMPKalpha; experiment: Kinase selectivity panel: AMPKalpha; type: biochemical, human; conditions: 10 μM in duplicate
Description: as §1, §2, §3, §4, §5, §6

[11] = molecular target: PKA (h) (Homo sapiens (Human), UniProt P17612); experiment: Kinase selectivity panel: PKA (h); type: biochemical; conditions: 10 μM in duplicate, read-out: % inhibition of control values
Description: as §1, §2, §3, §4, §5, §6

[12] = molecular target: PAK1 (h) (Homo sapiens (Human), UniProt Q13153); experiment: Kinase selectivity panel: PAK1 (h); type: biochemical; conditions: 10 μM in duplicate, read-out: % inhibition of control values
Description: as §1, §2, §3, §4, §5, §6

[13] = molecular target: MNK2 (h) (Homo sapiens (Human), UniProt Q9HBH9); experiment: Kinase selectivity panel: MNK2 (h); type: biochemical; conditions: 10 μM in duplicate, read-out: % inhibition of control values
Description: as §1, §2, §3, §4, §5, §6

[14] = molecular target: GRK3/BARK2 (h) (ADRBK2) (Homo sapiens (Human), UniProt P35626); experiment: Kinase selectivity panel: GRK3/BARK2 (h) (ADRBK2); type: biochemical; conditions: 10 μM in duplicate, read-out: % inhibition of control values
Description: as §1, §2, §3, §4, §5, §6

[15] = molecular target: smMLCK (h) (MYLK) (Homo sapiens (Human), UniProt Q15746); experiment: Kinase selectivity panel: smMLCK (h) (MYLK); type: biochemical; conditions: 10 μM in duplicate, read-out: % inhibition of control values
Description: as §1, §2, §3, §4, §5, §6

[16] = molecular target: AurB/Aur1 kinase (h) (Homo sapiens (Human), UniProt Q96GD4); experiment: Kinase selectivity panel: AurB/Aur1 kinase (h); type: biochemical; conditions: 10 μM in duplicate, read-out: % inhibition of control values
Description: as §1, §2, §3, §4, §5, §6

[17] = molecular target: IRAK4 (h) (Homo sapiens (Human), UniProt Q9NWZ3); experiment: Kinase selectivity panel: IRAK4 (h); type: biochemical; conditions: 10 μM in duplicate, read-out: % inhibition of control values
Description: as §1, §2, §3, §4, §5, §6

[18] = molecular target: AurA/Aur2 kinase (h) (Homo sapiens (Human), UniProt O14965); experiment: Kinase selectivity panel: AurA/Aur2 kinase (h); type: biochemical; conditions: 10 μM in duplicate, read-out: % inhibition of control values
Description: as §1, §2, §3, §4, §5, §6

[19] = molecular target: MSK1 (h) (Homo sapiens (Human), UniProt O75582); experiment: Kinase selectivity panel: MSK1 (h); type: biochemical; conditions: 10 μM in duplicate, read-out: % inhibition of control values
Description: as §1, §2, §3, §4, §5, §6

[20] = molecular target: Akt1/PKBalpha (h) (Homo sapiens (Human), UniProt P31749); experiment: Kinase selectivity panel: Akt1/PKBalpha (h); type: biochemical; conditions: 10 μM in duplicate, read-out: % inhibition of control values
Description: as §1, §2, §3, §4, §5, §6

[21] = molecular target: JAK2 (h) (Homo sapiens (Human), UniProt O60674); experiment: Kinase selectivity panel: JAK2 (h); type: biochemical; conditions: 10 μM in duplicate, read-out: % inhibition of control values
Description: as §1, §2, §3, §4, §5, §6

[22] = molecular target: PKCgamma (h) (Homo sapiens (Human), UniProt P05129); experiment: Kinase selectivity panel: PKCgamma (h); type: biochemical; conditions: 10 μM in duplicate, read-out: % inhibition of control values
Description: as §1, §2, §3, §4, §5, §6

[23] = molecular target: p38alpha kinase (h) (Homo sapiens (Human), UniProt Q16539); experiment: Kinase selectivity panel: p38alpha kinase (h); type: biochemical; conditions: 10 μM in duplicate, read-out: % inhibition of control values
Description: as §1, §2, §3, §4, §5, §6

[24] = molecular target: CaMK4 (h) (Homo sapiens (Human), UniProt Q16566); experiment: Kinase selectivity panel: CaMK4 (h); type: biochemical; conditions: 10 μM in duplicate, read-out: % inhibition of control values
Description: as §1, §2, §3, §4, §5, §6

[25] = molecular target: HGK (h) (MAP4K4) (Homo sapiens (Human), UniProt O95819); experiment: Kinase selectivity panel: HGK (h) (MAP4K4); type: biochemical; conditions: 10 μM in duplicate, read-out: % inhibition of control values
Description: as §1, §2, §3, §4, §5, §6

[26] = molecular target: PKCalpha (h) (Homo sapiens (Human), UniProt P17252); experiment: Kinase selectivity panel: PKCalpha (h); type: biochemical; conditions: 10 μM in duplicate, read-out: % inhibition of control values
Description: as §1, §2, §3, §4, §5, §6

[27] = molecular target: Ret kinase (h) (Homo sapiens (Human), UniProt P07949); experiment: Kinase selectivity panel: Ret kinase (h); type: biochemical; conditions: 10 μM in duplicate, read-out: % inhibition of control values
Description: as §1, §2, §3, §4, §5, §6

[28] = molecular target: IRK (h) (InsR) (Homo sapiens (Human), UniProt P06213); experiment: Kinase selectivity panel: IRK (h) (InsR); type: biochemical; conditions: 10 μM in duplicate, read-out: % inhibition of control values
Description: as §1, §2, §3, §4, §5, §6

[29] = molecular target: TRKA (h) (Homo sapiens (Human), UniProt P04629); experiment: Kinase selectivity panel: TRKA (h); type: biochemical; conditions: 10 μM in duplicate, read-out: % inhibition of control values
Description: as §1, §2, §3, §4, §5, §6

[30] = molecular target: EphB4 kinase (h) (Homo sapiens (Human), UniProt P54760); experiment: Kinase selectivity panel: EphB4 kinase (h); type: biochemical; conditions: 10 μM in duplicate, read-out: % inhibition of control values
Description: as §1, §2, §3, §4, §5, §6

[31] = molecular target: CDC2/CDK1 (h) (cycB) (Homo sapiens (Human), UniProt P06493); experiment: Kinase selectivity panel: CDC2/CDK1 (h) (cycB); type: biochemical; conditions: 10 μM in duplicate, read-out: % inhibition of control values
Description: as §1, §2, §3, §4, §5, §6

[32] = molecular target: NEK1 (h) (Homo sapiens (Human), UniProt Q96PY6); experiment: Kinase selectivity panel: NEK1 (h); type: biochemical; conditions: 10 μM in duplicate, read-out: % inhibition of control values
Description: as §1, §2, §3, §4, §5, §6

[33] = molecular target: DYRK1a (h) (Homo sapiens (Human), UniProt Q13627); experiment: Kinase selectivity panel: DYRK1a (h); type: biochemical; conditions: 10 μM in duplicate, read-out: % inhibition of control values
Description: as §1, §2, §3, §4, §5, §6

[34] = molecular target: DAPK1 (h) (Homo sapiens (Human), UniProt P53355); experiment: Kinase selectivity panel: DAPK1 (h); type: biochemical; conditions: 10 μM in duplicate, read-out: % inhibition of control values
Description: as §1, §2, §3, §4, §5, §6

Sequence of PAK1 (h) (Q13153 whole entry): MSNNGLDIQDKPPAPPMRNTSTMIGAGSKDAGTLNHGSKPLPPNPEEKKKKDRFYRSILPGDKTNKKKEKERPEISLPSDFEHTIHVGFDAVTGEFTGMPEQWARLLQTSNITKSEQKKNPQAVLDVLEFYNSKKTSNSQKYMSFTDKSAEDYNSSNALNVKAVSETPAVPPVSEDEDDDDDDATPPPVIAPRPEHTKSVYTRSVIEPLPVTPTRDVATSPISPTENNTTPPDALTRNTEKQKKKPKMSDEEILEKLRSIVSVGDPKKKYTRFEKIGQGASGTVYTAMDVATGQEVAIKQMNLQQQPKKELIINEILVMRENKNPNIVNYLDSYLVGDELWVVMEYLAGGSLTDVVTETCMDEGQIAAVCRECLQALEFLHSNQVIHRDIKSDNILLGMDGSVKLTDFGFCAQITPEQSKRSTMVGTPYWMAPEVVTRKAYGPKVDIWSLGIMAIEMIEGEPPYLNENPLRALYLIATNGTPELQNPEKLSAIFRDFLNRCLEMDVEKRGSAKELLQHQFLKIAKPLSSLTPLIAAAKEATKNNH
Sequence of p38alpha kinase (h) (Q16539 whole entry): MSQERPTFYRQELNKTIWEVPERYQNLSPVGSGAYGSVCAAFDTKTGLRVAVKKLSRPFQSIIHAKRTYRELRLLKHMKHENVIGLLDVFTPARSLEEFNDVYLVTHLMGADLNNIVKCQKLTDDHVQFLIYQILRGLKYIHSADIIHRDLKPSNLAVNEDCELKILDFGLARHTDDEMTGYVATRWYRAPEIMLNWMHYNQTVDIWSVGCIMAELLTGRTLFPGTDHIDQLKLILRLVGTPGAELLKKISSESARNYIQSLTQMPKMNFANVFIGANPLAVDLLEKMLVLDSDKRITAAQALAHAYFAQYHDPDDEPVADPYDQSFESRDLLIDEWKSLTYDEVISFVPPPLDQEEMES
Sequence of IRAK4 (h) (Q9NWZ3 whole entry): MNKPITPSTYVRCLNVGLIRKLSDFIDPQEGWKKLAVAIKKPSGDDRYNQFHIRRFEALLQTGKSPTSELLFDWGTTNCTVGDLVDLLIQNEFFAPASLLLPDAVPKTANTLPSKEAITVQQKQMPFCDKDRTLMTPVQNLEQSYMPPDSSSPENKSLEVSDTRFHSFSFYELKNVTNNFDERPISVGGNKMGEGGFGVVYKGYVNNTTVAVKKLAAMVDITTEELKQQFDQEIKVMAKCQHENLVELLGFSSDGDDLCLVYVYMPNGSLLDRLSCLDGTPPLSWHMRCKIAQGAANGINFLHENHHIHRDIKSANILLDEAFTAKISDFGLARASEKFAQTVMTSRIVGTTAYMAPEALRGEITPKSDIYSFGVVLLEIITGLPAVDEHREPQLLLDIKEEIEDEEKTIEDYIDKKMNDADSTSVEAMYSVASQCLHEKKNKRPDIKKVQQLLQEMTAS
Sequence of Ret kinase (h) (P07949 29-1114): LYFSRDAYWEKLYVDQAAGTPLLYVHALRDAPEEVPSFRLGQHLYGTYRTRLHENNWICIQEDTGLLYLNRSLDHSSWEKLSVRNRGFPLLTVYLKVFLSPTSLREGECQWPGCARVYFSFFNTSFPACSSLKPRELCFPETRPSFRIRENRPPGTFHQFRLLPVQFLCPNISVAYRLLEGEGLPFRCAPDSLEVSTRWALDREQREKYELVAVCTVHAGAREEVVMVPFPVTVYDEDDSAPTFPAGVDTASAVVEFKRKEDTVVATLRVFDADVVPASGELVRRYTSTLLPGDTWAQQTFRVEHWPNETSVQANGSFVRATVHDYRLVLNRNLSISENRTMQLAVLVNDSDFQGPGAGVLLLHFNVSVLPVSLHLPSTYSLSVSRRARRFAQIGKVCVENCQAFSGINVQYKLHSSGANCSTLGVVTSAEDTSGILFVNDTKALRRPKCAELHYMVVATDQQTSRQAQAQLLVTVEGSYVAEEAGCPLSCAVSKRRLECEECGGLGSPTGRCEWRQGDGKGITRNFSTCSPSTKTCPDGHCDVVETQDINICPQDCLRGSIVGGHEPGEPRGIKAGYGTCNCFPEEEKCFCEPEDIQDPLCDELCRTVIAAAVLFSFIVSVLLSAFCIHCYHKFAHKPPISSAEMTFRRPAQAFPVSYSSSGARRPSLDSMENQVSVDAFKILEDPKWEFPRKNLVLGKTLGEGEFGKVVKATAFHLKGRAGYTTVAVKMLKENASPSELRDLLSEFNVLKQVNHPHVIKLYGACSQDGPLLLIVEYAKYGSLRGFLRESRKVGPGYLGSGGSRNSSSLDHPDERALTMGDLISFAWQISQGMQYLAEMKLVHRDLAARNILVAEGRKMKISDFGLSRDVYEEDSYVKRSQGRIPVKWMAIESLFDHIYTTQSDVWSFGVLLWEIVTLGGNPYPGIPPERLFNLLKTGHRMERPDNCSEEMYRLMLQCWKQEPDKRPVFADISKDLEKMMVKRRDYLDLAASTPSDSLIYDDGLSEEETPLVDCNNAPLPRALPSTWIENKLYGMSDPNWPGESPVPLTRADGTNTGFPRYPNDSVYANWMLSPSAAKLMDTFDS
Sequence of DAPK1 (h) (P53355 whole entry): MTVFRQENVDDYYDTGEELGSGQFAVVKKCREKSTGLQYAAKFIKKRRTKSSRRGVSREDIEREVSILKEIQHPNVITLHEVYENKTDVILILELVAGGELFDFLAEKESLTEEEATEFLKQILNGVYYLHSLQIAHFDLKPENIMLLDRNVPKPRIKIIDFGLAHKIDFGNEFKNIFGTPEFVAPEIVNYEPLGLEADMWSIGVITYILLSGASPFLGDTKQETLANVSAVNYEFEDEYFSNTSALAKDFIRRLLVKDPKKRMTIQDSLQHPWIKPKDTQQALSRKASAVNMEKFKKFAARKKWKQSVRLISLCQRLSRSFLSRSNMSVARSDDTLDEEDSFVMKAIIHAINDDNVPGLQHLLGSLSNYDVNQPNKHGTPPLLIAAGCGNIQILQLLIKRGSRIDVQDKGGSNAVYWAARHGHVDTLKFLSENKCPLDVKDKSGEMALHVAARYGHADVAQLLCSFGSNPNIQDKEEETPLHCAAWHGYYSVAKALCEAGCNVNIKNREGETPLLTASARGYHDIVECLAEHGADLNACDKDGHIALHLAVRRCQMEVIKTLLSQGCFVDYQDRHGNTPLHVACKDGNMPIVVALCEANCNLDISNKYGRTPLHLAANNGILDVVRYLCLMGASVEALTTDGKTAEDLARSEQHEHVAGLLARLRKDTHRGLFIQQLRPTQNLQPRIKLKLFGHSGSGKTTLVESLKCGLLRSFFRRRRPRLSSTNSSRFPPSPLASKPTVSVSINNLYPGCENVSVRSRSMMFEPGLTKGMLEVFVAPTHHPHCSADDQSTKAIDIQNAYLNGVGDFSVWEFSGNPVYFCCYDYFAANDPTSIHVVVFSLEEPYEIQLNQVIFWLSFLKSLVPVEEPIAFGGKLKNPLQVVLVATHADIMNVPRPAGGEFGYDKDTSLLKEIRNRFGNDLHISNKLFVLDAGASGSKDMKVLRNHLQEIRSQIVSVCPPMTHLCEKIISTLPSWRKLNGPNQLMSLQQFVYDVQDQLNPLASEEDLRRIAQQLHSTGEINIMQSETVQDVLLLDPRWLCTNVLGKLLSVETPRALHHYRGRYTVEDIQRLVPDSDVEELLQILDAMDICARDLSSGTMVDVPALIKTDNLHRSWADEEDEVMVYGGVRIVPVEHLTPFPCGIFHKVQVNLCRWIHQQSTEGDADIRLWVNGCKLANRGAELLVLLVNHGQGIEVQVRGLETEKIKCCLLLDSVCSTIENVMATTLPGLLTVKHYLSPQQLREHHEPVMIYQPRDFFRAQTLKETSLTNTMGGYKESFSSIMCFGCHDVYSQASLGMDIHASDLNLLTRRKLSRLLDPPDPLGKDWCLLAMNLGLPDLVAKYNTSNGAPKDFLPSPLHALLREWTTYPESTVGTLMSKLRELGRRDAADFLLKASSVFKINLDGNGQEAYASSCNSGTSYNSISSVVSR
Sequence of Akt1/PKBalpha (h) (P31749 whole entry): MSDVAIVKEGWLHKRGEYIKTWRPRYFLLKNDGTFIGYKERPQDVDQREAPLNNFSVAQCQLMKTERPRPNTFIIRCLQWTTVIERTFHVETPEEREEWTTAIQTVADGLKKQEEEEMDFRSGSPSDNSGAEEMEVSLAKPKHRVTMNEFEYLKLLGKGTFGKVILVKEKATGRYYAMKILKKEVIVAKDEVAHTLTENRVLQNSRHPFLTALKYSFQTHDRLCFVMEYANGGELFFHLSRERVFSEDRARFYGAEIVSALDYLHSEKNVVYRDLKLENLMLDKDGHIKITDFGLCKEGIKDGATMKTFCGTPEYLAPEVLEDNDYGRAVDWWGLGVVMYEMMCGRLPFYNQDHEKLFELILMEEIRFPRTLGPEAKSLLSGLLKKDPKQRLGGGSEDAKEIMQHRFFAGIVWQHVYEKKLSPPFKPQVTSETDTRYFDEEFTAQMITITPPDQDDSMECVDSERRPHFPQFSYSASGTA

Row | SMILES | inhibition at 10 µM [1] | inhibition at 10 µM [2] | inhibition at 10 µM [4] | inhibition at 10 µM [5] | inhibition at 10 µM [7] | inhibition at 10 µM [9] | % inhibition of control values [10] | inhibition at 10 µM [11] | inhibition at 10 µM [12] | inhibition at 10 µM [13] | inhibition at 10 µM [14] | inhibition at 10 µM [16] | inhibition at 10 µM [17] | inhibition at 10 µM [18] | inhibition at 10 µM [20] | inhibition at 10 µM [21] | inhibition at 10 µM [22] | inhibition at 10 µM [23] | inhibition at 10 µM [24] | inhibition at 10 µM [25] | also measured
1 | COc1ccc2[nH]nc(C(=O)NCC3CCN(CC(=O)O)CC3)c2c1 [Compound 1, [4-({[(5-methoxy-1H-indazol-3-yl)-carbonyl]amino}methyl)piperidin-1-yl]acetic acid] | 0% | 0% | 6% | 18% | 0% | 0% | 16% | 0% | 1% | 0% | 0% | 0% | 0% | 7% | 0% | 0% | 3% | 0% | 0% | 8% | inhibition at 10 µM [3]: 0%; inhibition at 10 µM [6]: 2%; inhibition at 10 µM [8]: 24%; inhibition at 10 µM [15]: 0%; inhibition at 10 µM [19]: 7%; inhibition at 10 µM [26]: 0%; inhibition at 10 µM [27]: 0%; inhibition at 10 µM [28]: 0%; inhibition at 10 µM [29]: 1%; inhibition at 10 µM [30]: 2%; inhibition at 10 µM [31]: 7%; inhibition at 10 µM [32]: 0%; inhibition at 10 µM [33]: 76%; inhibition at 10 µM [34]: 22%
2 | COCCN1CCC(CNC(=O)c2n[nH]c3ccc(-c4cccc(F)c4F)cc23)CC1 [Compound 8, 5-(2,3-difluorophenyl)-N-{[1-(2-methoxyethyl)piperidin-4-yl]methyl}-1H-indazole-3-carboxamide] | 1% | 0% | 0% | 92% | 17% | 8% | 68% | 0% | 3% | 4% | 8% | 0% | 0% | 10% | 0% | 23% | 0% | 1% | 4% | 72% | inhibition at 10 µM [26]: 19%; inhibition at 10 µM [27]: 0%; inhibition at 10 µM [28]: 9%; inhibition at 10 µM [29]: 14%; inhibition at 10 µM [30]: 0%; inhibition at 10 µM [31]: 80%; inhibition at 10 µM [33]: 99%; inhibition at 10 µM [34]: 47%
